Laboratory results as given in PubChem BioAssay (NCI).
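96-well plates; 48 h exposure; 5 concentrations. Endpoints by linear interpolation between flanking doses. Not reached: highest tested concentration assigned. GI50 marks 50% less growth. TGI: concentration producing complete growth inhibition.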

Columns and labels:
Experiment in all cases: NCI tumour cell line growth inhibition, 48 h
SF-295 CNS = tested on: SF-295 CNS
T-47D breast = tested on: T-47D breast
A498 renal = tested on: A498 renal
OVCAR-3 ovarian = tested on: OVCAR-3 ovarian
K-562 leukemia = tested on: K-562 leukemia
RXF 393 renal = tested on: RXF 393 renal
HT29 colon = tested on: HT29 colon
OVCAR-5 ovarian = tested on: OVCAR-5 ovarian
OVCAR-4 ovarian = tested on: OVCAR-4 ovarian
SK-MEL-28 melanoma = tested on: SK-MEL-28 melanoma
NCI-H460 lung = tested on: NCI-H460 lung
MOLT-4 leukemia = tested on: MOLT-4 leukemia
CAKI-1 renal = tested on: CAKI-1 renal
SK-MEL-2 melanoma = tested on: SK-MEL-2 melanoma
SF-539 CNS = tested on: SF-539 CNS
SNB-19 CNS = tested on: SNB-19 CNS
SNB-75 CNS = tested on: SNB-75 CNS
SW-620 colon = tested on: SW-620 colon
NCI-H23 lung = tested on: NCI-H23 lung
SF-268 CNS = tested on: SF-268 CNS
DU-145 prostate = tested on: DU-145 prostate
SN12C renal = tested on: SN12C renal
IGROV1 ovarian = tested on: IGROV1 ovarian
786-0 renal = tested on: 786-0 renal
SR leukemia = tested on: SR leukemia
SK-OV-3 ovarian = tested on: SK-OV-3 ovarian
HCT-116 colon = tested on: HCT-116 colon
BT-549 breast = tested on: BT-549 breast
PC-3 prostate = tested on: PC-3 prostate
UO-31 renal = tested on: UO-31 renal
NCI-H226 lung = tested on: NCI-H226 lung
UACC-62 melanoma = tested on: UACC-62 melanoma
TK-10 renal = tested on: TK-10 renal
LOX IMVI melanoma = tested on: LOX IMVI melanoma
M14 melanoma = tested on: M14 melanoma
MDA-MB-435 = tested on: MDA-MB-435
KM12 colon = tested on: KM12 colon
NCI-H522 lung = tested on: NCI-H522 lung
HCC-2998 colon = tested on: HCC-2998 colon
NCI/ADR-RES ovarian = tested on: NCI/ADR-RES ovarian
RPMI-8226 leukemia = tested on: RPMI-8226 leukemia
HCT-15 colon = tested on: HCT-15 colon
CCRF-CEM leukemia = tested on: CCRF-CEM leukemia
MDA-MB-231 breast = tested on: MDA-MB-231 breast
A549 NSCLC = tested on: A549 NSCLC
U251 CNS = tested on: U251 CNS
SK-MEL-5 melanoma = tested on: SK-MEL-5 melanoma
OVCAR-8 ovarian = tested on: OVCAR-8 ovarian
UACC-257 melanoma = tested on: UACC-257 melanoma
EKVX NSCLC = tested on: EKVX NSCLC
COLO 205 colon = tested on: COLO 205 colon
ACHN renal = tested on: ACHN renal
MALME-3M melanoma = tested on: MALME-3M melanoma
MCF7 breast = tested on: MCF7 breast
HS 578T breast = tested on: HS 578T breast
HL-60(TB) leukemia = tested on: HL-60(TB) leukemia
HOP-62 NSCLC = tested on: HOP-62 NSCLC
HOP-92 NSCLC = tested on: HOP-92 NSCLC

O=C(/C=C/c1ccc([N+](=O)[O-])cc1)c1ccc2c3c(cccc13)CC2
GI50 (SF-295 CNS): 6.23 µM | TGI (SF-295 CNS): > 100 µM | GI50 (T-47D breast): 1.57 µM | TGI (T-47D breast): > 24.8 µM | GI50 (A498 renal): 11.6 µM | TGI (A498 renal): 43.5 µM | GI50 (OVCAR-3 ovarian): 3 µM | TGI (OVCAR-3 ovarian): 10.1 µM | GI50 (K-562 leukemia): 4.37 µM | TGI (K-562 leukemia): > 100 µM | GI50 (RXF 393 renal): 4.47 µM | TGI (RXF 393 renal): 21.3 µM | GI50 (HT29 colon): 5.05 µM | TGI (HT29 colon): > 100 µM | GI50 (OVCAR-5 ovarian): > 64.2 µM | TGI (OVCAR-5 ovarian): > 100 µM | GI50 (OVCAR-4 ovarian): 13.5 µM | TGI (OVCAR-4 ovarian): > 100 µM | GI50 (SK-MEL-28 melanoma): 18.2 µM | TGI (SK-MEL-28 melanoma): 58.9 µM | GI50 (NCI-H460 lung): 4.23 µM | TGI (NCI-H460 lung): > 64.8 µM | GI50 (MOLT-4 leukemia): 1.27 µM | TGI (MOLT-4 leukemia): 11.3 µM | GI50 (CAKI-1 renal): 9.69 µM | TGI (CAKI-1 renal): > 100 µM | GI50 (SK-MEL-2 melanoma): > 100 µM | TGI (SK-MEL-2 melanoma): > 100 µM | GI50 (SF-539 CNS): 2.63 µM | TGI (SF-539 CNS): 7.72 µM | GI50 (SNB-19 CNS): 3.36 µM | TGI (SNB-19 CNS): 17.4 µM | GI50 (SNB-75 CNS): 4.95 µM | TGI (SNB-75 CNS): 23.8 µM | GI50 (SW-620 colon): 2.34 µM | TGI (SW-620 colon): 6.62 µM | GI50 (NCI-H23 lung): 29.1 µM | TGI (NCI-H23 lung): > 100 µM | GI50 (SF-268 CNS): 8.18 µM | TGI (SF-268 CNS): > 100 µM | GI50 (DU-145 prostate): 4.23 µM | TGI (DU-145 prostate): > 40.9 µM | GI50 (SN12C renal): > 34.6 µM | TGI (SN12C renal): > 100 µM | GI50 (IGROV1 ovarian): 4.36 µM | TGI (IGROV1 ovarian): 53.2 µM | GI50 (786-0 renal): 10.2 µM | TGI (786-0 renal): > 88.9 µM | GI50 (SR leukemia): 2.02 µM | TGI (SR leukemia): 24.9 µM | GI50 (SK-OV-3 ovarian): 33.1 µM | TGI (SK-OV-3 ovarian): > 91.3 µM | GI50 (HCT-116 colon): 4.33 µM | TGI (HCT-116 colon): 25.7 µM | GI50 (BT-549 breast): 23.6 µM | TGI (BT-549 breast): > 90.4 µM | GI50 (PC-3 prostate): 4.72 µM | TGI (PC-3 prostate): > 100 µM | GI50 (UO-31 renal): 10.4 µM | TGI (UO-31 renal): > 62.6 µM | GI50 (NCI-H226 lung): > 37.2 µM | TGI (NCI-H226 lung): > 100 µM | GI50 (UACC-62 melanoma): > 48.4 µM | TGI (UACC-62 melanoma): > 100 µM | GI50 (TK-10 renal): 31.4 µM | TGI (TK-10 renal): > 75 µM | GI50 (LOX IMVI melanoma): 4.26 µM | TGI (LOX IMVI melanoma): 17.6 µM | GI50 (M14 melanoma): > 64.6 µM | TGI (M14 melanoma): > 100 µM | GI50 (MDA-MB-435): 15.8 µM | TGI (MDA-MB-435): > 63.4 µM | GI50 (KM12 colon): 3.1 µM | TGI (KM12 colon): 14.2 µM | GI50 (NCI-H522 lung): 9.77 µM | TGI (NCI-H522 lung): 34.5 µM | GI50 (HCC-2998 colon): 26.9 µM | TGI (HCC-2998 colon): > 78.1 µM | GI50 (NCI/ADR-RES ovarian): 20.8 µM | TGI (NCI/ADR-RES ovarian): > 100 µM | GI50 (RPMI-8226 leukemia): 1.64 µM | TGI (RPMI-8226 leukemia): 4.84 µM | GI50 (HCT-15 colon): 5.07 µM | TGI (HCT-15 colon): > 100 µM | GI50 (CCRF-CEM leukemia): 5.21 µM | TGI (CCRF-CEM leukemia): > 100 µM | GI50 (MDA-MB-231 breast): > 52.8 µM | TGI (MDA-MB-231 breast): > 100 µM | GI50 (A549 NSCLC): 10.3 µM | TGI (A549 NSCLC): > 100 µM | GI50 (U251 CNS): 2.65 µM | TGI (U251 CNS): > 29.6 µM | GI50 (SK-MEL-5 melanoma): 33.2 µM | TGI (SK-MEL-5 melanoma): > 100 µM | GI50 (OVCAR-8 ovarian): 22.2 µM | TGI (OVCAR-8 ovarian): > 100 µM | GI50 (UACC-257 melanoma): > 46 µM | TGI (UACC-257 melanoma): > 94.4 µM | GI50 (EKVX NSCLC): 62.9 µM | TGI (EKVX NSCLC): > 100 µM | GI50 (COLO 205 colon): 4.98 µM | TGI (COLO 205 colon): > 25.4 µM | GI50 (ACHN renal): 47.9 µM | TGI (ACHN renal): > 100 µM | GI50 (MALME-3M melanoma): > 64.2 µM | TGI (MALME-3M melanoma): > 100 µM | GI50 (MCF7 breast): 2.7 µM | TGI (MCF7 breast): > 25.4 µM | TGI (HS 578T breast): > 30.8 µM | GI50 (HL-60(TB) leukemia): 4.51 µM | TGI (HL-60(TB) leukemia): 29 µM | GI50 (HOP-62 NSCLC): 11.4 µM | TGI (HOP-62 NSCLC): > 81.9 µM | GI50 (HOP-92 NSCLC): 2.43 µM | TGI (HOP-92 NSCLC): 15.4 µM
